Entries after “also recorded” stand apart in the source; their conditions may differ. One block for each molecule: values may come before it.
Experiments:
LPS-challenged mice = assay: LPS-induced neutrophilia and cytokine production assay; type: in vivo, mouse; conditions: for IL-1β levels in BALF: intratracheal administration, LPS-challenged mice
[1] = Rat oral pharmacokinetics (plasma); type: in vivo; conditions: 20-30 μmol/kg, mean n = 3
Experimental: Plasma (EDTA K2 anticoagulant) was collected from male, cannulated, CD Sprague Dawley rats to determine the pharmacokinetics of formulations containing compound inhibitors of Rho kinase. Each animal was dosed orally with a 4 ml/kg solution or suspension of each test compound in 10 mM acetate buffered saline, pH 4.5 at a final concentration range of 20-30 μmol/kg. Blood was collected at 0.25, 0.5, 1, 2, 4, 6, 8, and 24 hours. Plasma samples were assayed for the concentration of the test compound using an on-line, solid phase extraction LC/MS/MS analysis system.
Samples were analyzed on a QSTAR Elite, hybrid quadrupole time-of-flight mass spectrometer (Applied Biosystems, Framingham, Mass.) coupled with a Symbiosis Pharma integrated, on-line SPE-HPLC system (Spark Holland Inc., Plainsboro, N.J.). Analyst QS 2.0 software was used for instrument control, data acquisition and processing. […] Mobile Phase A consisted of 0.1% ammonium hydroxide in water and Mobile Phase B consisted of 0.1% formic acid in acetonitrile. Pharmacokinetic analyses were performed using WinNonlin software version 5.2 (Pharsight Corporation, Mountain View, Calif.).
As determined from the plasma concentration versus time curves, the time to peak and peak exposure are represented by the values Tmax and Cmax, respectively. The AUC values (nM*hr) shown were calculated as the areas under the plasma concentration versus time curves from time zero through the time of the last observable value and represent the total exposure of the compound over the course of the study. Half-life values or the amount of time required for the plasma levels of the compound to decline to half the initial value are represented as t½.

[2] = system: ova-sensitized, ova-challenged mice; assay: Prevention of airway hyperreactivity (Penh, methacholine) in ovalbumin-sensitized mice; type: in vivo, mouse; conditions: for airway hyperreactivity to metacholine: oral 15 μMol/kg once a day during days 27 to 31, tested Day 32
From the text: Airway hyperreactivity is a downstream physiologic effect of inflammation in the mouse ovalbumin sensitization model. The objective of the experiment was to answer whether the decrease in inflammation due to ROCK inhibitor anti-inflammatory dosing results in the prevention of downstream physiological consequences as measured by Penh. […] The anti-inflammatory dosing paradigm consists of dosing the animals once a day starting on day 27 and finishing on either day 30 or 31 (1 hr prior to the aerosolized ovalbumin challenges on days 28 to 30) but not on day 32 when hyperreactivity evaluation occurs. […] Exposure to the methacholine doses consisted of a 3 minute period during which a nebulizer was aerosolizing the methacholine and an additional 3 minute period following the cessation of nebulization. […] Enhanced pause (Penh), a unitless index of airway hyperreactivity, is derived from the expiratory side of the respiratory waveform measured via the plethysmograph and is used as an indirect measure of airway resistance and hyperreactivity. […] Following the methacholine dose response, BALF was collected and all animals were anesthetized, bled and euthanized. […] The Penh value at each of the dose levels of methacholine represents the 6-minute average response. Change from baseline (CFB) in Penh was calculated at each methacholine dose and the area under the curve (AUC) for these CFB values was calculated using the trapezoidal rule. This same approach was applied for each mouse across multiple experiments. […] Data from equal experimental conditions across experiments performed on different days were pooled for statistical analysis and data reporting. […] A random intercept for each experiment was assumed to account for possible similarities of the results obtained from a given experiment (i.e., as a “blocking effect”). […] For FIG. 7, linear AUC values from compound treated mice were reported as a percent of linear AUC values from vehicle-treated ovalbumin-sensitized/ovalbumin-challenged (asthmatic) mice. […]

[3] = system: ova-sensitized, ova-challenged mice; assay: Mouse ovalbumin sensitization model, anti-inflammatory dosing: BALF eosinophils and cytokines; type: in vivo; conditions: for Airway eosinophil infiltration (eosinophils per ml of BALF): dosed orally to day 31, anti-inflammatory dosing paradigm
ERK2 = target: T1, ERK2 (Homo sapiens, UniProt P28482); assay: Kinase panel screen (KinaseProfiler), ERK2; type: biochemical; conditions: 10 μM ATP
T1 construct: purchased Upstate, Millipore Bioscience Division (KinaseProfiler service)
T1 sequence (P28482 whole entry): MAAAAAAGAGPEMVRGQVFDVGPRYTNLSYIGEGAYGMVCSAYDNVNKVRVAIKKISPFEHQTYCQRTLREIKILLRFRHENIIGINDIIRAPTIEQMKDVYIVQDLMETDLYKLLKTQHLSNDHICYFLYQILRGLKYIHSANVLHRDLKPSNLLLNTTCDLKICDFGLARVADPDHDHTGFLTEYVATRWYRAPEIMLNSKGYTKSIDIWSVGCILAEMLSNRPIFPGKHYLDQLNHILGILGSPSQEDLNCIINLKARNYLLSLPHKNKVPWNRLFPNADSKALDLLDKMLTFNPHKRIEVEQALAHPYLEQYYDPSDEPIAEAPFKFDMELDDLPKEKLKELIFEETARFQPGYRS
Experimental: Compounds of Formulae I and II were examined for activity against a selected panel of kinases using the KinaseProfiler™ enzyme profiling services (Upstate, Millipore Bioscience Division). Percent kinase activity at 10 μM and 1 μM test compound and 10 μM ATP was determined against 40 wild-type recombinant human kinases according to Upstate's standard protocol: ASK1, BTK, CSK, c-RAF, GCK, GSK3β, IKKα, IKKβ, IRAK1, IRAK4, JNK1α1, JNK2α2, JNK3, ERK1, ERK2, MAPKAP-K2, MAPKAP-K3, MEK1, MKK4, MKK6, MKK7β, Mnk2, MSK1, PAK3, PDK1, PRAK, ROCK1, Rsk2, SAPK2a, SAPK2b, SAPK3, SAPK4, SRPK1, SRPK2, Syk, TAK1, TBK1, PI3-Kβ, PI3-Kγ, PI3-Kδ.

murine eosinophils = assay: Murine eosinophil chemotaxis (eotaxin); type: cell-based, mouse; conditions: 10 nM eotaxin challenge
Experimental: These assays are in vitro assays of eosinophil chemotaxis that can be used to evaluate the ability of Rho Kinase inhibitor compounds of Formula I or II to inhibit the migration of eosinophils, an immunomodulatory cell involved in inflammation. Compounds with activity in this assay can be utilized to treat disease associated with an inflammatory response. Mouse Eosinophil Isolation: Bronchoalveolar lavage was collected from ovalbumin sensitized and challenged mice in a volume of 2.5 mL lavage buffer. The lavage buffer was 0.9% saline with 10% fetal bovine serum. The pooled lavages were maintained on ice until use. […] In Vitro Chemotaxis: […]

human eosinophils = assay: Human eosinophil chemotaxis (eotaxin); type: cell-based; conditions: 1 nM eotaxin challenge
From the text: These assays are in vitro assays of eosinophil chemotaxis that can be used to evaluate the ability of Rho Kinase inhibitor compounds of Formula I or II to inhibit the migration of eosinophils, an immunomodulatory cell involved in inflammation. Compounds with activity in this assay can be utilized to treat disease associated with an inflammatory response. Human Eosinophil Isolation: Peripheral blood from healthy human volunteers was collected and the PMNs separated via Ficoll-paque density centrifugation followed by hypotonic lysis of the red blood cells. Subsequently, the human eosinophils were isolated from the cell suspension via StemCell Technologies Human Eosinophil Enrichment kit (Cat. No 19256) according to the manufacturer's recommendations. Briefly, unwanted cells were specifically labeled with dextran-coated magnetic nanoparticles using bispecific Tetrameric Antibody Complexes (TAC) directed against cell surface antigens on human blood cells: […] The unwanted cells are then separated from the unlabelled eosinophils using the EasySep® magnetic isolation procedure. In Vitro Chemotaxis: […]

[4] = system: LPS-stimulated human monocytes; assay: Human monocyte cytokine secretion assay (LPS); type: cell-based; conditions: range over the three cytokines and both compounds, read-out: potencies for reducing secretion of IL-1β, TNF-α and IL-9
Experimental: Peripheral blood from healthy human volunteers was collected and the monocytes isolated via Ficoll-paque density centrifugation. […] The cells were allowed to pre-incubate with test compound at the indicated concentration for 30 minutes (37° C., 5% CO2, humidified air); after which the supernatant was removed and media containing compound and 1 ng/mL LPS was added. Cells were allowed to incubate with compounds and LPS for 4 hours at 37° C. after which the supernatant was removed and stored at −80° C. Cytokine concentrations in the supernatant were determined using commercially available Bio-Rad Bio-plex™ kits according the manufacturer's instructions.

[5] = 15 μmol/kg/oral on days 27 to 31

Structure (SMILES): CS(=O)(=O)Nc1cccc(CN2CCC[C@H](Nc3ccc4[nH]ncc4c3)C2)c1 [Compound 1.091, (S)-N-(3-((3-(1H-indazol-5-ylamino)piperidin-1-yl)methyl)phenyl)methanesulfonamide]
IL-1β levels in BALF (LPS-challenged mice): reduction in IL-1β; also recorded: reduction of IL-1β levels
LPS-induced pulmonary neutrophilia influx (LPS-challenged mice; intratracheal dosing one hour prior to LPS challenge): significant reduction; also recorded: dose-dependent inhibition
AUC (0-last) [1]: BLQ
Cmax [1]: BLQ
Tmax [1]: BLQ
t½ [1]: BLQ
airway hyperreactivity ([2]; intratracheal once a day during days 27 to 30): prevention of airway hyperreactivity
eosinophils in BALF ([3]; dosed i.t. to day 30, anti-inflammatory dosing paradigm): reduction of eosinophils

Structure (SMILES): c1cc2cc(CN3CCC[C@@H](Nc4ccc5[nH]ncc5c4)C3)ccc2o1 [Compound 1.131, (R)-N-(1-(benzofuran-5-ylmethyl)piperidin-3-yl)-1H-indazol-5-amine]
airway hyperreactivity to metacholine [2]: prevention of airway hyperreactivity
Airway eosinophil infiltration (eosinophils per ml of BALF) [3]: reduced

activity at 1 µM (ERK2; 1 μM test compound, read-out: Percent inhibition ERK2): 89%
activity at 10 µM (ERK2; 10 μM test compound, read-out: Percent inhibition ERK2): 60%
Structure (SMILES): NC(=O)Cn1ccc2cc(CN3CCC[C@@H](Nc4ccc5[nH]ncc5c4)C3)ccc21 [Compound 1.162, (R)-2-(5-((3-(1H-indazol-5-ylamino)piperidin-1-yl)methyl)-1H-indol-1-yl)acetamide]

Structure (SMILES): CS(=O)(=O)Nc1cccc(CN2CC[C@@H](Nc3cccc4cnccc34)C2)c1 [Compound 2.038, (R)-N-(3-((3-(isoquinolin-5-ylamino)pyrrolidin-1-yl)methyl)phenyl)methanesulfonamide]
murine eosinophil chemotactic response (murine eosinophils): inhibited
human eosinophil chemotactic response (human eosinophils): inhibited
airway hyperreactivity to metacholine [2]: prevention of airway hyperreactivity
concentration of Eotaxin in BALF [3, 5]: reduced levels
concentration of IL-5 in BALF [3, 5]: reduced levels
concentration of IL-13 in BALF [3, 5]: reduced levels
Airway eosinophil infiltration (eosinophils per ml of BALF) [3]: reduced

Structure (SMILES): NC(=O)Cn1ccc2cc(CN3CC[C@@H](Nc4cccc5cnccc45)C3)ccc21 [Compound 2.059, (R)-2-(5-((3-(isoquinolin-5-ylamino)pyrrolidin-1-yl)methyl)-1H-indol-1-yl)acetamide]
IL-1β levels in BALF (LPS-challenged mice): reduction in IL-1β; also recorded: reduction of IL-1β levels
IC50 [4]: 170 to 1000 nM
Percent inhibition ERK2 (ERK2; 1 μM test compound): 56%

Structure (SMILES): OCCn1ccc2cc(CN3CC[C@@H](Nc4cccc5cnccc45)C3)ccc21 [Compound 2.066, (R)-2-(5-((3-(isoquinolin-5-ylamino)pyrrolidin-1-yl)methyl)-1H-indol-1-yl)ethanol]
IC50 [4]: 170 to 1000 nM

— US8207195B2, “Method for treating neurological and neuropathic diseases using rho kinase inhibitor compounds” (priority 2008, dated 2012)
